According to patent US20240182893A1, “INHIBITION OF FGR REDUCES FIBROSIS” (UNIVERSITY OF PITTSBURGH-OF THE COMMONWEALTH SYSTEM OF …, priority 2021, published 2024):
“Also recorded” adds a separate entry of the source.

System: target C57BL/6 stromal cells
Assay: Non-contact transwell coculture: irradiated senescent tdTOMp16+ stromal cells on top, target cells at bottom, RT-qPCR of profibrotic genes
Type: cell-based, mouse
Protocol: It was also confirmed that the RIS cells showing upregulation of Fgr RNA by heat map also had higher RNA levels. Validation of RNA for p16 and p21, as well as Fgr was carried out (FIG. 5A-FIG. 5C). To establish that irradiated tdTOMp16+ senescent cells induce profibrotic genes, a C57BL/6 target cell line, and a noncontact transwell co-culture system was used (FIG. 6A). Irradiated red cells were compared to 0 Gy or irradiated non-red cells. Sorted red cells, were placed on the top of each well and C57/B6 mouse stromal target cells were plated at the bottom well and observed for two weeks. There was significant induction of collagen 1al and collagen 3 in C57/B6 target cells by RIS red cells (FIG. 6B-FIG. 6C). […] (FIG. 6D).
Transwell experiment: Control and Fgr knockdown stable cell lines were irradiated with 5 Gy by Cesium Gamma Cell dose rate 300 cGy/min. Ten days after radiation, red senescent and non-red non-senescent cells were sorted using MoFlo Astrios Cell Sorter (Beckman Coulter). Senescent and non-senescent cells were plated on the top well of the transwell with a […] pore size (Coster, Cat. No. 3412) and the target C57BL/6 cell line for the evaluation of fibrotic markers was plated at the bottom. 2 weeks later total RNA was extracted from the target C57BL/6 cells and evaluated by qPCR for Collagen 3 (Mm01254476_m1) and TGF-beta (Mm01191861_m1). GAPDH (Mm99999915_g1) was used as the loading control.
Transwell coculture experiments. A Transwell system (0.4-μm pore size, polyester membrane; Corning, Kennebunk, ME) was used (Ejaz A et al. Stem Cells. 2019, 37, 791-802). C57BL/6 mouse bone marrow stromal cells or mouse primary tail fibroblasts were cultured in the bottom surface of a 9-cm^2 culture dishes. Above the adherent layer in the transwell, tdTOMp16+ bone marrow stromal cells (non-irradiated, irradiated non-sorted, irradiated, and sorted senescent tdTOM+, or irradiated non-senescent tdTOM− cells) were cultured in the upper transwell. […] For the stable Fgr shRNA cells, non-target control and Fgr shRNA knockdown cell lines were also irradiated and sorted following the same protocol. Briefly, tdTOMp16+ cells were irradiated and after 10 days of radiation, the cells were FACS sorted for tdTOM+ and tdTOM− cells and 3×10^5 cells added on the top wells in each case. Coculture was maintained for another 10 days. The target cells from the bottom well were lysed, and total RNA was isolated using TRizol (Sigma) reagent following the manufacturer's protocol. cDNA was synthesized, and expression of profibrotic genes (TGF-β1, CTGF, collagens (Col1, Col3), and α-SMA were analyzed using gene-specific TaqMan primers employing quantitative real-time polymerase chain reaction (PCR).
In vitro transwell experiments. Senescent bone marrow derived irradiated (5 Gy, subconfluent cultures held for 10 days) tdTOMp16+ cells were sorted for TOM+ (red) color and placed in Transwell cultures. Two types of transwell experiments were carried out. For induction of fibrosis biomarkers in target cells, senescent cells were placed into the top chamber separated from target mesenchymal stem cells (MSCs) derived from the adherent layer of long term C57Bl/6 mouse bone marrow cultures in the bottom chamber by a 0.4-micron pore size membrane. […] The migration of gfp+ cells through the filter to the bottom compartment was measured by imaging the bottom wells and counting gfp+ cells relative to numbers of senescent TOM+ (red) cells. […]

[1] = 10 nM TL02-59, 10 days, FIG. 23

In the case of CCN1CCN(Cc2ccc(NC(=O)c3ccc(C)c(Oc4ncnc5cc(OC)c(OC)cc45)c3)cc2C(F)(F)F)CC1 [TL02-59], the “induction of TGF-beta in target cells by tdTOM+ senescent cells (RT-qPCR)” value [1] was “significantly inhibited induction; also recorded: abrogates the induction of profibrotic genes”, the “induction of collagen 3 in target cells by tdTOM+ senescent cells (RT-qPCR)” value [1] was “significantly inhibited induction; also recorded: abrogates the induction of profibrotic genes” and the “induction of fibrosis biomarkers TGF-β and Collagen 3 in target mesenchymal stem cells” value (TL02-59 10 nM, 10 days, FIG. 44) was “blocked; also recorded: inhibits the induction”. For the same molecule, the “induction of collagen 3 in target cells by RIS red cells” value (TL02-59 1 μm, transwell, after 2 weeks, FIG. 6D) was “reduced the induction of collagen 3; also recorded: blocks senescent cell induction” and the “induction of biomarkers of fibrosis (collagen 1a1, collagen 3, TGF-β) in target cells by RIS cells” value (transwell co-culture, tdTOMp16+ stromal cell line) was “abrogates the induction of biomarkers of fibrosis; also recorded: abrogated senescent cell induction of profibrotic genes”.
